Experimental data as given in patent publication US20230127839A1, “COMPOUNDS AND COMPOSITIONS FOR TREATING CONDITIONS ASSOCIATED WITH STING ACTIVITY” (IFM Due, Inc., priority 2019, published 2023).

biological target: T1, hSTING (Homo sapiens, UniProt Q86WV6, G230A/H232R/R293Q/R71H); assay: STING reporter assay (luciferase) in THP1-Dual KO-IFNAR2 cells stimulated with 2'3'cGAMP; format: cell-based; conditions: 2'3'cGAMP 15 μM, 24 h, luciferase reporter activity
T1 construct: host or cells: THP1-Dual KO-IFNAR2 cells
Experimental: STING pathway activation by the compounds described herein is measured using THP1-Dual™ cells (KO-IFNAR2).
THP1-Dual™ KO-IFNAR2 Cells (obtained from invivogen) are maintained in RPMI, 10% FCS, 5 ml P/S, 2 mM L-glut, 10 mM Hepes, and 1 mM sodium pyruvate.
Compounds are spotted in empty 384 well tissue culture plates (Greiner 781182) by Echo for a final concentration of 0.0017-100 μM. Cells are plated into the TC plates at 40 μL per well, 2×10E6 cells/mL. For activation with STING ligand, 2′3′cGAMP (MW 718.38, obtained from Invivogen), is prepared in Optimem media.
The following solutions are prepared for each 1×384 plate: • Solution A: 2 mL Optimem with one of the following stimuli: • 60 uL of 10 mM 2′3′cGAMP->150 μM stock • Solution B: 2 mL Optimem with 60 μL Lipofectamine 2000->Incubate 5 min at RT
2 mL of solution A and 2 ml Solution B is mixed and incubated for 20 min at room temperature (RT). 20 uL of transfection solution (A+B) is added on top of the plated cells, with a final 2′3′cGAMP concentration of 15 μM. The plates are then centrifuged immediately at 340 g for 1 minute, after which they are incubated at 37° C., 5% CO2, >98% humidity for 24 h. Luciferase reporter activity is then measured. EC50 values are calculated by using standard methods known in the art.
Luciferase reporter assay: 10 μL of supernatant from the assay is transferred to white 384-plate with flat bottom and squared wells. One pouch of QUANTI-Luc™ Plus us dissolved in 25 mL of water. 100 μL of QLC Stabilizer per 25 mL of QUANTI-Luc™ Plus solution is added. 50 μL of QUANTI-Luc™ Plus/QLC solution per well is then added. Luminescence is measured on a Platereader (e.g., Spectramax I3X (Molecular Devices GF3637001)).
Luciferase reporter activity is then measured. EC50 values are calculated by using standard methods known in the art.

T1 sequence (Q86WV6 whole entry R71H/G230A/H232R/R293Q): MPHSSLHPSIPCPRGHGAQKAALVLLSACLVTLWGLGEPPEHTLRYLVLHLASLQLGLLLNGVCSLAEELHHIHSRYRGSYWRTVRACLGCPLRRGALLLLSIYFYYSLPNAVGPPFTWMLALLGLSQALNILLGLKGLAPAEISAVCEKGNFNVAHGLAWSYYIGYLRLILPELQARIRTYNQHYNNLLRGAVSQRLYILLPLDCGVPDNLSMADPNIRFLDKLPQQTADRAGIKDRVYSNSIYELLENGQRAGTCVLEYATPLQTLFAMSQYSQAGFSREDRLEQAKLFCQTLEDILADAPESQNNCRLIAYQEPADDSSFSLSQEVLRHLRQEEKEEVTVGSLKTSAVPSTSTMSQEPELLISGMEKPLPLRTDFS

Row | EC50 [µM] | SMILES
1 | 0.2 to 1 | COCCO[C@H]1CCN(c2ncc(NC(=O)Nc3c[nH]c4cc(F)c(F)cc34)cc2Cl)C1 [Compound 150, (S)-1-(5-chloro-6-(3-(2-methoxyethoxy)pyrrolidin-1-yl)pyridin-3-yl)-3-(5,6-difluoro-1H-indol-3-yl)urea]
2 | 0.2 to 1 | Cc1cc(NC(=O)Nc2c[nH]c3cc(F)c(F)cc23)cnc1N1CCO[C@@H](C)C1 [Compound 151, (S)-1-(5,6-difluoro-1H-indol-3-yl)-3-(5-methyl-6-(2-methylmorpholino)pyridin-3-yl)urea]
3 | 1 to 5 | COCCO[C@@H]1CCN(c2ncc(NC(=O)Nc3c[nH]c4cc(F)c(F)cc34)cc2C)C1 [Compound 152, (R)-1-(5,6-difluoro-1H-indol-3-yl)-3-(6-(3-(2-methoxyethoxy)pyrrolidin-1-yl)-5-methylpyridin-3-yl)urea]
4 | 0.04 to 0.2 | CC1(C)CN(c2ncc(NC(=O)Nc3c[nH]c4cc(F)c(F)cc34)cc2Cl)CCO1 [Compound 153, 1-(5-chloro-6-(2,2-dimethylmorpholino)pyridin-3-yl)-3-(5,6-difluoro-1H-indol-3-yl)urea]
5 | 0.04 to 0.2 | O=C(Nc1cc(Cl)c(C2CCC(F)(F)CC2)cn1)Nc1c[nH]c2cc(F)c(F)cc12 [Compound 154, 1-(4-chloro-5-(4,4-difluorocyclohexyl)pyridin-2-yl)-3-(5,6-difluoro-1H-indol-3-yl)urea]
6 | 0.04 to 0.2 | O=C(Nc1ccc(N2CC3(C2)CC(F)(F)C3)nc1)Nc1c[nH]c2ccc(Cl)cc12 [Compound 155, 1-(5-chloro-1H-indol-3-yl)-3-(6-(6,6-difluoro-2-azaspiro[3.3]heptan-2-yl)pyridin-3-yl)urea]
7 | 0.04 to 0.2 | Cc1cc(NC(=O)Nc2c[nH]c3ccc(Cl)cc23)cnc1C1CCC(F)(F)CC1 [Compound 156, 1-(5-chloro-1H-indol-3-yl)-3-(6-(4,4-difluorocyclohexyl)-5-methylpyridin-3-yl)urea]
8 | 0.04 to 0.2 | O=C(Nc1cnc(C2CCC(F)(F)CC2)c(Cl)c1)Nc1c[nH]c2ccc(Cl)cc12 [Compound 157, 1-(5-chloro-1H-indol-3-yl)-3-(5-chloro-6-(4,4-difluorocyclohexyl)pyridin-3-yl)urea]
9 | 0.2 to 1 | C[C@@H]1CN(c2ncc(NC(=O)Nc3c[nH]c4cc(F)c(F)cc34)cc2Cl)CCO1 [Compound 158, (R)-1-(5-chloro-6-(2-methylmorpholino)pyridin-3-yl)-3-(5,6-difluoro-1H-indol-3-yl)urea]
10 | 0.04 to 0.2 | O=C(Nc1cnc(C2CCC(F)(F)CC2)c(Cl)c1)Nc1c[nH]c2ccc(C(F)F)cc12 [Compound 159, 1-(5-chloro-6-(4,4-difluorocyclohexyl)pyridin-3-yl)-3-(5-(difluoromethyl)-1H-indol-3-yl)urea]
11 | > 30 | Cc1cc(NC(=O)Nc2c[nH]c3cc(F)c(F)cc23)cnc1N1CC2(COC2)C1 [Compound 160, 1-(5,6-difluoro-1H-indol-3-yl)-3-(5-methyl-6-(2-oxa-6-azaspiro[3.3]heptan-6-yl)pyridin-3-yl)urea]
12 | 5 to 100 | Cc1cc(NC(=O)Nc2c[nH]c3cc(F)c(F)cc23)cnc1N1CC2(CC(O)C2)C1 [Compound 161, 1-(5,6-difluoro-1H-indol-3-yl)-3-(6-(6-hydroxy-2-azaspiro[3.3]heptan-2-yl)-5-methylpyridin-3-yl)urea]
13 | 0.2 to 1 | Cc1cc(NC(=O)Nc2c[nH]c3cc(F)c(F)cc23)cnc1N1CC(F)(F)C1 [Compound 162, 1-(5,6-difluoro-1H-indol-3-yl)-3-(6-(3,3-difluoroazetidin-1-yl)-5-methylpyridin-3-yl)urea]
14 | 0.04 to 0.2 | N#Cc1cc(NC(=O)Nc2c[nH]c3cc(F)c(F)cc23)cnc1N1CCC(F)(F)CC1 [Compound 163, 1-(5-cyano-6-(4,4-difluoropiperidin-1-yl)pyridin-3-yl)-3-(5,6-difluoro-1H-indol-3-yl)urea]
15 | 1 to 5 | Cc1cc(NC(=O)Nc2c[nH]c3ccc(CCO)cc23)cnc1N1CCC(F)(F)CC1 [Compound 164, 1-(6-(4,4-difluoropiperidin-1-yl)-5-methylpyridin-3-yl)-3-(5-(2-hydroxyethyl)-1H-indol-3-yl)urea]
16 | 0.2 to 1 | O=C(Nc1cnc(N2CCOCC2)c(Cl)c1)Nc1c[nH]c2cc(F)c(F)cc12 [Compound 165, 1-(5-chloro-6-morpholinopyridin-3-yl)-3-(5,6-difluoro-1H-indol-3-yl)urea]

Row | EC50 [µM] | SMILES
17 | 0.2 to 1 | Cc1cc(NC(=O)Nc2c[nH]c3cc(F)c(F)cc23)cnc1C1CCN(CC(F)(F)F)CC1 [Compound 166, 1-(5,6-difluoro-1H-indol-3-yl)-3-(5-methyl-6-(1-(2,2,2-trifluoroethyl)piperidin-4-yl)pyridin-3-yl)urea]
18 | 0.2 to 1 | Cc1cc(NC(=O)Nc2c[nH]c3cc(F)c(F)cc23)cnc1N1CC2(C1)CC(F)(F)C2 [Compound 167, 1-(5,6-difluoro-1H-indol-3-yl)-3-(6-(6,6-difluoro-2-azaspiro[3.3]heptan-2-yl)-5-methylpyridin-3-yl)urea]
19 | 0.2 to 1 | COc1cc(NC(=O)Nc2c[nH]c3cc(F)c(F)cc23)cnc1N1CC(F)(F)C1 [Compound 168, 1-(5,6-difluoro-1H-indol-3-yl)-3-(6-(3,3-difluoroazetidin-1-yl)-5-methoxypyridin-3-yl)urea]
20 | 0.2 to 1 | Cc1cc(NC(=O)Nc2c[nH]c3cc(F)c(F)cc23)cnc1C1CCOCC1 [Compound 169, 1-(5,6-difluoro-1H-indol-3-yl)-3-(5-methyl-6-(tetrahydro-2H-pyran-4-yl)pyridin-3-yl)urea]
21 | 0.04 to 0.2 | O=C(Nc1cnc(N2CCC(F)(F)CC2)c(Cl)c1)Nc1c[nH]c2cc(F)c(Cl)cc12 [Compound 170, 1-(5-chloro-6-(4.4-difluoropiperidin-1-yl)pyridin-3-yl)-3-(5-chloro-6-fluoro-1H-indol-3-yl)urea]
22 | 5 to 100 | CS(=O)(=O)c1ccc2[nH]cc(NC(=O)Nc3cnc(N4CCC(F)(F)CC4)c(Cl)c3)c2c1 [Compound 171, 1-(5-chloro-6-(4,4-difluoropiperidin-1-yl)pyridin-3-yl)-3-(5-(methylsulfonyl)-1H-indol-3-yl)urea]
23 | 0.2 to 1 | C#CCC1CCN(c2ccc(NC(=O)Nc3c[nH]c4ccccc34)cn2)CC1 [Compound 172, 1-(1H-indol-3-yl)-3-(6-(4-(prop-2-yn-1-yl)piperidin-1-yl)pyridin-3-yl)urea]
24 | 0.2 to 1 | O=C(Nc1cnc(C2CC(F)(F)C2)c(Cl)c1)Nc1c[nH]c2cc(F)c(F)cc12 [Compound 173, 1-(5-chloro-6-(3,3-difluorocyclobutyl)pyridin-3-yl)-3-(5,6-difluoro-1H-indol-3-yl)urea]
25 | 0.04 to 0.2 | O=C(Nc1cnc(N2CCC(F)(F)CC2)c(Cl)n1)Nc1c[nH]c2ccc(Cl)cc12 [Compound 174, 1-(5-chloro-1H-indol-3-yl)-3-(6-chloro-5-(4,4-difluoropiperidin-1-yl)pyrazin-2-yl)urea]
26 | 0.2 to 1 | Cc1nc(NC(=O)Nc2c[nH]c3cc(F)c(F)cc23)cnc1N1CCC(F)(F)CC1 [Compound 175, 1-(5,6-difluoro-1H-indol-3-yl)-3-(5-(4,4-difluoropiperidin-1-yl)-6-methylpyrazin-2-yl)urea]
27 | 0.2 to 1 | O=C(Nc1cnc(N2CCC3(CCCCO3)CC2)c(Cl)c1)Nc1c[nH]c2cc(F)c(F)cc12 [Compound 176, 1-(5-chloro-6-(1-oxa-9-azaspiro[5.5]undecan-9-yl)pyridin-3-yl)-3-(5,6-difluoro-1H-indol-3-yl)urea]
28 | 0.04 to 0.2 | COCCC1CCN(c2ncc(NC(=O)Nc3c[nH]c4cc(F)c(F)cc34)cc2Cl)CC1 [Compound 177, 1-(5-chloro-6-(4-(2-methoxyethyl)piperidin-1-yl)pyridin-3-yl)-3-(5,6-difluoro-1H-indol-3-yl)urea]
29 | 1 to 5 | O=C(Nc1cnc(N2CCC(F)(F)CC2)nc1)Nc1c[nH]c2ccccc12 [Compound 178, 1-(2-(4,4-difluoropiperidin-1-yl)pyrimidin-5-yl)-3-(1H-indol-3-yl)urea]
30 | 0.2 to 1 | O=C(Nc1cnc(N2CCC(F)(F)CC2)nc1)Nc1c[nH]c2cc(F)c(F)cc12 [Compound 179, 1-(5,6-difluoro-1H-indol-3-yl)-3-(2-(4,4-difluoropiperidin-1-yl)pyrimidin-5-yl)urea]
31 | 0.04 to 0.2 | O=C(Nc1cnc(N2CCC(F)(F)CC2)nc1)Nc1c[nH]c2ccc(Cl)cc12 [Compound 180, 1-(5-chloro-1H-indol-3-yl)-3-(2-(4,4-difluoropiperidin-1-yl)pyrimidin-5-yl)urea]
32 | 0.04 to 0.2 | N#Cc1ccc2[nH]cc(NC(=O)Nc3cnc(N4CCC(F)(F)CC4)c(Cl)c3)c2c1 [Compound 181, 1-(5-chloro-6-(4,4-difluoropiperidin-1-yl)pyridin-3-yl)-3-(5-cyano-1H-indol-3-yl)urea]
